Assay results from patent US20160333419A1, “GENE SIGNATURES ASSOCIATED WITH SENSITIVITY TO MDM2 INHIBITORS” (DAIICHI SANKYO COMPANY, LIMITED, priority 2014, published 2016).

Columns and labels:
BT-483 = test: OncoPanel cytotoxicity assay; format: cell-based; details: Homo sapiens, 72 hour incubation
Outline: (§1)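 Cells grown in RPMI 1640 with 10% FBS (or a special medium) at 37° C, 5% CO2 were treated 24 hours after seeding for 72 hours with 10 concentrations (3.16-fold dilutions, 0.1% DMSO final). Nuclei were dye-stained and imaged; IC50 was fit from percent of control relative cell count.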

CRO-AP5 = test: OncoPanel cytotoxicity assay; format: cell-based; details: Homo sapiens, 72 hour incubation
Outline: as §1

WM-115 = test: OncoPanel cytotoxicity assay; format: cell-based; details: Homo sapiens, 72 hour incubation
Outline: as §1

T84 = test: OncoPanel cytotoxicity assay; format: cell-based; details: Homo sapiens, 72 hour incubation
Outline: as §1

CAL-54 = test: OncoPanel cytotoxicity assay; format: cell-based; details: Homo sapiens, 72 hour incubation
Outline: as §1

IMR-32 = test: OncoPanel cytotoxicity assay; format: cell-based; details: Homo sapiens, 72 hour incubation
Outline: as §1

MDA-MB-175-VII = test: OncoPanel cytotoxicity assay; format: cell-based; details: Homo sapiens, 72 hour incubation
Outline: as §1

ZR-75-1 = test: OncoPanel cytotoxicity assay; format: cell-based; details: Homo sapiens, 72 hour incubation
Outline: as §1

VCaP = test: OncoPanel cytotoxicity assay; format: cell-based; details: Homo sapiens, 72 hour incubation
Outline: as §1

[1] = test system: multi-cancer cell line panel; test: OncoPanel cytotoxicity assay, whole panel summary; format: cell-based, human
Method: This Example describes an evaluation of the effect of a representative small molecule MDM2i on the growth of cells in a multi-cancer cell line panel. In this Example, the MDM2 inhibitors used were Compound A and Compound B p-toluenensulfonate. The panel included 250 human cancer cell lines (OncoPanel™, Ricerca Biosciences, Painesville, Ohio) that were evaluated in a high content drug screening analysis. The relative IC50 values for the cell lines were determined.
Cells were grown in RPMI 1640, 10% FBS, 2 mM L-alanyl-L-Glutamine, 1 mM Na Pyruvate, or a special medium in a humidified atmosphere of 5% CO2 at 37° C. Cells were seeded into 384-well plates and incubated in a humidified atmosphere of 5% CO2 at 37° C. Test compounds were added 24 hours post cell seeding. At the same time, a time zero, untreated cell plate was generated as a control. After a 72 hour incubation period, cells were fixed and stained with nuclear dye to allow visualization of nuclei.
Compounds were serially diluted 3.16-fold and assayed over 10 concentrations of inhibitor in a final assay concentration of 0.1% DMSO from the highest test concentration specified in the sample information chapter. Automated fluorescence microscopy was carried out using a GE Healthcare InCell Analyzer 1000, and images were collected with a 4× objective. Twelve bit tiff images were acquired using the InCell Analyzer 1000 3.2 and analyzed with Developer Toolbox 1.6 software.
Cell proliferation was measured by the signal intensity of the incorporated nuclear dye. The cell proliferation assay output is referred to as the relative cell count. To determine the cell proliferation end point, the cell proliferation data output is transformed to percent of control (POC) using the following formula: […]
Relative cell count IC50 (IC50) is the test compound's concentration that produces 50% of the cell proliferation inhibitory response or 50% cytotoxicity level. IC50 values were calculated using nonlinear regression to fit data to a sigmoidal 4 point, 4 parameter One-Site dose response model, where: y (fit)=A+[(B−A)/(1+((C/x)̂D))]. […]

COR-L23 = test: OncoPanel cytotoxicity assay; format: cell-based; details: Homo sapiens, 72 hour incubation
Outline: as §1

OE19 = test: OncoPanel cytotoxicity assay; format: cell-based; details: Homo sapiens, 72 hour incubation
Outline: as §1

NCI-H69 = test: OncoPanel cytotoxicity assay; format: cell-based; details: Homo sapiens, 72 hour incubation
Outline: as §1

DMS273 = test: OncoPanel cytotoxicity assay; format: cell-based; details: Homo sapiens, DMS-273, 72 hour incubation
Outline: as §1

COR-L105 = test: OncoPanel cytotoxicity assay; format: cell-based; details: Homo sapiens, 72 hour incubation
Outline: as §1

OE21 = test: OncoPanel cytotoxicity assay; format: cell-based; details: Homo sapiens, 72 hour incubation
Outline: as §1

OE33 = test: OncoPanel cytotoxicity assay; format: cell-based; details: Homo sapiens, 72 hour incubation
Outline: as §1

[2] = share of the cell lines of the panel

Structure (SMILES)	IC50 (BT-483) [µM]	IC50 (CRO-AP5) [µM]	IC50 (WM-115) [µM]	IC50 (T84) [µM]	IC50 (CAL-54) [µM]	IC50 (IMR-32) [µM]	IC50 (MDA-MB-175-VII) [µM]	IC50 (ZR-75-1) [µM]	IC50 (VCaP) [µM]	IC50 ([1]; Homo sapiens, range over all cell lines of the panel, read-out: Cell line IC50 values ranged) [µM]	cell lines with IC50 values of <1 μM [1, 2]	cell lines with IC50 values of >10 μM [1, 2]	IC50 (COR-L23) [µM]	IC50 (OE19) [µM]	IC50 (NCI-H69) [µM]	IC50 (DMS273) [µM]	IC50 (COR-L105) [µM]	IC50 (OE21) [µM]	IC50 (OE33) [µM]
CC[C@@H]1CNC2(CC2)CN1C(=O)[C@@H]1C[C@@H](F)CN1C(=O)C1=C(C(C)C)N2C(=N[C@@](C)(c3ccc(Cl)nc3)[C@H]2c2ccc(Cl)c(F)c2)S1 [Compound A, [(5R,6S)-5-(4-Chloro-3-fluorophenyl)-6-(6-chloropyridin-3-yl)-6-methyl-3-(propan-2-yl)-5,6-dihydroimidazo[2,1-b][1,3]thiazol-2-yl][(2S,4R)-2-{[(6R)-6-ethyl-4,7-diazaspiro[2.5]oct-7-yl]carbonyl}-4-fluoropyrrolidin-1-yl]methanone]	13.2	0.22	0.564	> 40	0.602	0.828	> 40	1.5	> 40	≥ 0.12	Approximately 25%	approximately 70%							
CC1(C)CCC2(CC1)N[C@@H](C(=O)N[C@@H]1CC[C@@H](C(N)=O)OC1)[C@H](c1ccnc(Cl)c1F)[C@]21C(=O)Nc2cc(Cl)ccc21 [Compound B, (3′R,4′S,5′R)—N-[(3R,6S)-6-carbamoyltetrahydro-2H-pyran-3-yl]-6″-chloro-4′-(2-chloro-3-fluoropyridin-4-yl)-4,4-dimethyl-2″-oxo-1″,2″-dihydrodispiro[cyclohexane-1,2′-pyrrolidine-3′,3″-indole]-5′-carboxamide]													8.98	> 10	> 10	9.08	0.168	9.81	7.58
